Results reported in ChEMBL document CHEMBL1151037, “Synthesis of a chemiluminescent probe useful for the purification of steroid 5-reductase” (Bioorg Med Chem Lett, 1996).
pIC50: −log10 of the molar value.

Molecular target: T1, 3-oxo-5-alpha-steroid 4-dehydrogenase 1 (Rattus norvegicus, UniProt P24008)
T1 sequence (P24008 whole entry): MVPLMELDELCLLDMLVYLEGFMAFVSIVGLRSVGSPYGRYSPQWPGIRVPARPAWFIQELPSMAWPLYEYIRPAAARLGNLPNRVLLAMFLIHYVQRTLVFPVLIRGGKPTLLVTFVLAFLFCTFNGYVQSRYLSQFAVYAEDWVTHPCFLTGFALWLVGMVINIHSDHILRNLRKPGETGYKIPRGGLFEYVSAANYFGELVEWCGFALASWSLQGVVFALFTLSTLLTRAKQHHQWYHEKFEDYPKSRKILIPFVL
Assay: Compound was tested for its inhibitory potency against rat Steroid 5-alpha-reductase type 1 expressed in transformed yeast Saccharomyces cerevisiae

Structure (SMILES)	pIC50
CCN(CCCCNC(=O)[C@H]1CCC2C3CCC4NC(=O)C=C[C@]4(C)C3CC[C@@]21C)c1ccc2c(=O)[nH][nH]c(=O)c2c1 (some centres not stated)	6.30
CC(C)(C)NC(=O)[C@H]1CC[C@H]2[C@@H]3CC[C@H]4NC(=O)C=C[C@]4(C)[C@H]3CC[C@]12C [FINASTERIDE]	4.40
